From PubChem BioAssay (NCI) come the findings set out here.

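Tested at 5 concentrations; 48 h exposure; 96-well plates; endpoints linearly interpolated, else capped at highest concentration. GI50 marks 50% less growth. TGI denotes the concentration required for complete inhibition of growth.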 Some results are limits rather than exact numbers.

Test systems include HCC-2998 colon; NCI-H23 lung; SF-295 CNS; SK-MEL-2 melanoma; SW-620 colon; COLO 205 colon.
Test in all cases: NCI tumour cell line growth inhibition, 48 h

For `Oc1c2c(c(O)c3ccccc13)=N[C@@H](c1ccccc1)[C@H](c1ccccc1)N=2`, the TGI in the test on HCC-2998 colon, with NCI-H23 lung, in the test on SF-295 CNS, with SK-MEL-2 melanoma and in the test on SW-620 colon was above 100 µM throughout.

On to `NC1=NC(=O)C(CC(=O)Nc2ccc([N+](=O)[O-])cc2[N+](=O)[O-])S1` (centres undefined), for which the TGI with COLO 205 colon, in the test with HCC-2998 colon, in the test with NCI-H23 lung, with SF-295 CNS, in the test on SK-MEL-2 melanoma and in the test with SW-620 colon was above 100 µM in each case.

`CN1CCN(C)C1c1cccc(C2N(C)CCN2C)c1`: the TGI with COLO 205 colon, in the test with HCC-2998 colon, in the test with NCI-H23 lung, in the test on SF-295 CNS and in the test with SK-MEL-2 melanoma was above 100 µM throughout.

Consider `CC1=Nc2c(ccc3c2C(=O)c2ccccc2C3=O)NC(c2ccncc2)C1` (centres undefined), for which the GI50 with HCC-2998 colon, in the test with NCI-H23 lung, with SF-295 CNS and in the test on SK-MEL-2 melanoma was above 100 µM in each case. For the same compound, the TGI in the test on HCC-2998 colon, with NCI-H23 lung, with SF-295 CNS, in the test with SK-MEL-2 melanoma and in the test on SW-620 colon was above 100 µM in each case.

For `CC(=O)OCCOCBr`, the TGI with COLO 205 colon, in the test with SF-295 CNS, in the test with SK-MEL-2 melanoma and in the test with SW-620 colon was above 100 µM in each case.

In the case of `C=C(COC(C)=O)CC(/C=C(\C)CCC=C(C)C)OC(C)=O` (centres undefined), the TGI with COLO 205 colon, in the test with HCC-2998 colon, in the test on NCI-H23 lung, with SF-295 CNS, in the test with SK-MEL-2 melanoma and in the test on SW-620 colon was above 100 µM throughout.

Consider `O=C(Nc1ccc(S(=O)(=O)N[C@@H](C(=O)O)c2ccccc2)cc1)c1ccc(F)cc1`, for which the TGI in the test on COLO 205 colon, in the test on HCC-2998 colon, in the test with NCI-H23 lung, in the test on SF-295 CNS, in the test with SK-MEL-2 melanoma and in the test with SW-620 colon was above 100 µM in each case.

Regarding `CC1CCCC(C(=O)/C(=C/c2cccc(Cl)c2)C(=O)C(=O)O)C1` (centres undefined), the TGI is above 100 µM in the test with COLO 205 colon; 25.4 µM in the test on HCC-2998 colon; above 100 µM in the test on NCI-H23 lung; above 100 µM in the test on SF-295 CNS; 27.7 µM with SW-620 colon.

Turning to `c1cc[c]([Sn]([S]c2cccc3cccnc23)([c]2ccccc2)[c]2ccccc2)cc1`, the GI50 was 0.017 µM in the test on COLO 205 colon; 0.0433 µM in the test on HCC-2998 colon; 0.0305 µM with NCI-H23 lung; 0.0462 µM in the test with SF-295 CNS; 0.0225 µM in the test with SW-620 colon. Further, the TGI with COLO 205 colon was determined as 0.0352 µM; in the test with HCC-2998 colon it was 0.096 µM; with NCI-H23 lung, 0.175 µM; with SF-295 CNS, 0.144 µM; in the test with SW-620 colon, 0.0918 µM.

For `CN(C)C(=S)/N=c1\ss/c(=N\S(=O)(=O)c2ccccc2)n1-c1ccccc1`, the TGI in the test on HCC-2998 colon, in the test with NCI-H23 lung, with SF-295 CNS, in the test on SK-MEL-2 melanoma and in the test on SW-620 colon was above 100 µM in each case.

Take `COc1cc(/C=C\c2ccc(O)cc2)cc(OC)c1OC`: the TGI was 13.9 µM with COLO 205 colon; above 79 µM in the test on HCC-2998 colon; 5.48 µM with SF-295 CNS; above 100 µM in the test on SK-MEL-2 melanoma; above 100 µM in the test with SW-620 colon.

As to `CCOc1cccc2nc3cccc(C(=O)NCCN(C)C)c3nc12`, the TGI in the test with COLO 205 colon was 3.52 µM; with HCC-2998 colon, 3.53 µM; in the test with NCI-H23 lung, 4.45 µM; in the test on SK-MEL-2 melanoma it was 3.86 µM.

Consider `O=C1CCn2c([nH]c3cccc4cccc2c43)=N1`, for which the TGI in the test on COLO 205 colon, with HCC-2998 colon, in the test with NCI-H23 lung and in the test on SW-620 colon was above 100 µM throughout.

For the compound `CC1(C)OC(=O)C=C([O-])O1.CC1(C)OC(=O)C=C([O-])O1.O=c1c(O)c(-c2ccc([O-])cc2[O-])oc2cc(O)cc(O)c12.[Ti+4]`, the TGI was above 100 µM in the test on COLO 205 colon; 73.7 µM in the test with NCI-H23 lung; above 100 µM in the test on SF-295 CNS; 67.5 µM with SK-MEL-2 melanoma; above 100 µM with SW-620 colon.

With `CC1(C)CCc2cc3c(cc2O1)OCCC3=O`, the TGI in the test with COLO 205 colon, in the test on HCC-2998 colon, in the test on NCI-H23 lung, with SF-295 CNS and in the test on SW-620 colon was above 100 µM in each case.

Consider `N#Cc1c(N)c(C(=O)O)nn(-c2cccc(C(F)(F)F)c2)c1=O`, for which the TGI in the test on COLO 205 colon, in the test with NCI-H23 lung, in the test on SF-295 CNS, with SK-MEL-2 melanoma and with SW-620 colon was above 100 µM each time.

On to `COc1ccc(C2=NC(C)(C)CO2)cc1`, for which the TGI with COLO 205 colon, in the test with NCI-H23 lung, in the test with SF-295 CNS, in the test on SK-MEL-2 melanoma and with SW-620 colon was above 100 µM each time.
